Here are results for 1 compound from PMC8512560, “Design, Synthesis, and Antipoliferative Activities of Novel Substituted Imidazole-Thione Linked Benzotriazole Derivatives” (Molecules, 2021).

The test deals with HCT-116 human colon cancer cell line. Kind of test: MTT viability assay, HCT-116. The class given is cell-based. The settings on record: Homo sapiens, HCT-116, 72 h, mean ± SD of three independent experiments, read-out: Antiproliferative Activities IC50, HCT-116. As for the experimental part: All the human tumour cell lines MCF-7, HL-60, HCT-116, and HUVEC were cultured in Dulbecco’s Modified Eagle’s Medium (DMEM) with 10% fetal bovine serum, 2 mM L-glutamine and 100 µg/mL penicillin/streptomycin. Cells were maintained at 37 °C in 5% CO2 in a humidified incubator. All cells were sub-cultured three times/week by trypsinization using TrypLE Express (1X).
The Benzotriazole compounds were evaluated for antiproliferative effect using the MTT viability assay of various cancer cell lines (MCF-7, HCT-116 and HL-60) and the normal human umbilical vein endothelial cell line (HUVEC) to calculate the relative IC50 values for each compound. Cells were seeded in triplicate in 96-well plates at a density of 10 × 10^3 cells/mL in a total volume of 200 µL per well. 0.1% of DMSO was used as a vehicle control. After this time, they were treated with 2 µL test compound which had been pre-prepared as stock solutions in ethanol to furnish the concentration range of study, 10 nM to 100 µM, and re-incubated for a further 72 h. The culture medium was then removed, and the cells washed with 100 µL phosphate buffered saline (PBS) and 50 µL MTT added, to reach a final concentration of 1 mg/mL MTT added. Cells were incubated for 2 h in darkness at 37 °C. At this point solubilisation was begun through the addition of […] DMSO and the cells maintained at room temperature in darkness for 20 min to ensure thorough colour diffusion before reading the absorbance. Plates were incubated for 72 h at 37 °C + 5% CO2. The MTT (5 mg/mL in PBS) was added and incubated for another 4 h, and the optical density was detected with a microplate reader at 570 nm. Results were expressed as percentage viability relative to vehicle control (100%). Dose response curves were plotted and IC50 values (concentration of drug resulting in 50% reduction in cell survival) were obtained using the commercial software package Prism (GraphPad Software, Inc., La Jolla, CA, USA). All the experiments were repeated in at least three independent experiments.

SMILES strings stand for the structures.

For orientation: IC50 means the point on the concentration scale where inhibition reaches its midpoint. Regarding `S=c1[nH]c(-n2nnc3ccccc32)cn1-c1ccc(Cl)cc1Cl` [BI9, 4-(1H-Benzo[d][1,2,3]Triazol-1-yl)-1-(2,4-Dichlorophenyl)-1H-Imidazole-2(3H)-Thione], the IC50 was 2630 ± 170 nM.
